Experiments:
GST-FABP3 = target: T1, GST-FABP3; test: Evaluation of FABP ligand affinity using ANS (GST-FABP3); type: binding, mouse; details: ANS fluorescence displacement; mean±SE of three measurements; read-out: Kd value of FABP for each ligand, GST-FABP3
T1 construct: made in house; host or cells: E. coli BL21 (DE3)

GST-FABP4 = target: T2, GST-FABP4; test: Evaluation of FABP ligand affinity using ANS (GST-FABP4); type: binding, mouse; details: ANS fluorescence displacement; mean±SE of three measurements; read-out: Kd value of FABP for each ligand, GST-FABP4
T2 construct: made in house; host or cells: E. coli BL21 (DE3)
Method: (§1) GST-FABP3, GST-FABP4, GST-FABP5, and GST-FABP7 were each expressed in E. coli [BL21 (DE3) strain], and then affinity purification was performed using a glutathione column.
(§2) Cloning of GST-FABP3, GST-FABP4, GST-FABP5 and GST-FABP7 vectors was performed by the following method. After reverse transcription of mRNA isolated from mouse heart into cDNA, the FABP3 gene (RefSeqID: NM_010174.1) and FABP4 gene (RefSeqID: NM_024406.2) were each amplified by PCR. These cDNAs were each inserted between the BamHI/EcoRI cleavage sites of a pGEX-2T vector (GE HealthCare Japan, Tokyo) using a DNA ligation kit (Takara Bio, Kusatsu) and an In-fusion kit (Takara Bio USA, CA, USA) to prepare vectors.
(§3) Purification of GST-binding proteins was performed using a GST purification kit (Takara Bio USA). After the E. coli were collected by centrifugation, the provided extraction buffer and aluminum oxide powder were added, and the mixture was crushed in a mortar. The centrifuged supernatant was added to the provided glutathione column and allowed to stand on ice for 30 minutes. The supernatant in the column was then discarded, and washing was performed with extraction buffer, followed by elution with elution buffer containing glutathione. The protein concentration of the elution product was calculated from the absorbance at 280 nm and then used for the ANS assay. 1-anilinonaphthalene-8-sulfonic acid (ANS, final concentration: […], in a solution of 10 mM KH2PO4 and 40 mM KCl at pH 7.4), which binds to FABP proteins and emits fluorescence, and FABP proteins (final concentration: […]), as well as various ligands at concentrations of 0 nM, 100 nM, 1,000 nM, 2,000 nM, and 4,000 nM (final) were incubated for 2 min, and then the fluorescence of ANS was measured (Ex/Em=355 nm/460 nm). The fluorescence intensity at each ligand concentration was converted to a relative value (%) to the ANS fluorescence intensity in the absence of ligand, and then the dissociation constant Kd (nM) was calculated by […] using the following equation.
(§4) The Kd values in the above table are indicated as the mean±SE of three measurements. […] Example Compounds 1 to 5 in the table may also be referred to as Compounds 1 to 5, respectively.

GST-FABP7 = target: T3, GST-FABP7 (Homo sapiens, UniProt O15540, K110R); test: Evaluation of FABP ligand affinity using ANS (GST-FABP7); type: binding, mouse; details: ANS fluorescence displacement; mean±SE of three measurements; read-out: Kd value of FABP for each ligand, GST-FABP7
T3 construct: made in house; host or cells: E. coli BL21 (DE3)
T3 sequence (O15540 1-132 K110R): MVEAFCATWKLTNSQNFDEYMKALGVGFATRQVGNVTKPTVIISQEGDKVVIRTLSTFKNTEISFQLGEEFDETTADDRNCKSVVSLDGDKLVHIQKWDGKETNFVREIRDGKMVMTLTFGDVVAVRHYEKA
Method: as §1, §2, §3, §4

GST-FABP5 = target: T4, GST-FABP5; test: Evaluation of FABP ligand affinity using ANS (GST-FABP5); type: binding, mouse; details: ANS fluorescence displacement; mean±SE of three measurements; read-out: Kd value of FABP for each ligand, GST-FABP5
T4 construct: made in house; host or cells: E. coli BL21 (DE3)
Method: as §1, §2, §3

[1] = system: MPTP-treated C57BL6 N mice (PD model animals); test: Rotarod task in PD model animals (MPTP); type: in vivo, mouse; details: Example Compound 2 0.03, 0.1, 0.3 mg/kg or LIGAND 1 0.3 mg/kg, Day 34, 20 rpm, FIG. 4
[2] = system: MPTP-treated C57BL6 N mice (PD model animals); test: Beam walking task in PD model animals (MPTP); type: in vivo, mouse; details: Example Compound 2 0.03, 0.1, 0.3 mg/kg or LIGAND 1 0.3 mg/kg, Day 34, FIG. 5
Method: In the beam walking task, the mice were placed on a thin board and allowed to walk, and the number of foot slips before reaching the goal box (corresponding to the vertical axis Number of foot slips in FIG. 5) was measured.

[3] = system: dopaminergic neurons (TH+ cells) in SNpc and VTA; test: Dopaminergic neuroprotection: TH-positive cells in brain sections of PD model animals; type: in vivo, mouse; details: MPTP mice; Example Compound 2 0.1, 0.3, 1.0 mg/kg or LIGAND 1 0.3 mg/kg; Day 34; FIGS. 6 to 9
Description: (§5) The results for the substantia nigra region are shown in FIGS. 6, 7, 10, 11, 14, and 15, and for the ventrotegmental area in FIGS. 8, 9, 12, 13, 16, and 17 (the vertical axis Number of TH^+ cells in FIGS. 6 and 8 corresponds to the number of dopaminergic neurons. The vertical axis Number of double-positive cells/TH^+ positive cells (%) in FIGS. 11 and 13 corresponds to the percentage of dopaminergic neurons that contain phosphorylated α-synuclein. The vertical axis Triple-positive cells/TH-positive cells in FIGS. 15 and 17 corresponds to the percentage of dopaminergic neurons that contain both FABP3 and phosphorylated α-synuclein).

dopaminergic neurons = details: reported in PTL 1 and NPL 6; cited from earlier work
[4] = system: MPTP-treated C57BL6 N mice (PD model animals); test: Passive avoidance task in PD model animals (MPTP); type: in vivo, mouse; details: 0.05, 0.1 and 0.3 mg/kg p.o. once daily for two weeks from Day 20, Day 34, FIG. 2
[5] = system: ICR mice, focal cerebral ischemia (tMCAO); test: Cerebral neuroprotection in focal cerebral ischemia model (tMCAO); type: in vivo, mouse; details: tMCAO 2 hours, 0.3 mg/kg orally after reperfusion
Method: Male ICR mice (5 weeks old, 25-30 g) were purchased from Japan SLC, Inc. (Shizuoka, Japan). The animals were reared under constant temperature and humidity conditions, in a 12-hour light/dark cycle (light on: 09:00-21:00), and fed ad libitum. All mice were anesthetized with a combination of 0.3 mg/kg medetomidine, 4.0 mg/kg midazolam, and 5.0 mg/kg butorphanol. A silicone-coated 6-0 suture (Doccol Corporation, USA) was inserted from the right external carotid artery into the internal carotid artery up to the origin of the middle cerebral artery, and left in place for 2 hours, then the suture was removed and reperfusion was performed to prepare a mouse model of focal cerebral ischemia (tMCAO). Mice in the sham surgery group underwent the same treatment except for the insertion of the suture. […] Regional cerebral blood flow (rCBF) was monitored by Laser-Doppler flowmetry (FLOC1, OMEGAWAVE, Tokyo, Japan) to confirm whether the right hemisphere was ischemic or not. […] Infarct volume was measured using ImageJ software and expressed as a percentage of the total hemisphere (corresponding to B in FIG. 19, E in FIG. 21, and H in FIG. 23. The vertical axis Neurological score in C of FIG. 19, F of FIG. 21, and I of FIG. 23 represents the neurological deficit. The vertical axis Survival rate (%) in FIG. 24 corresponds to the mouse survival rate). […]

[6] = system: MPTP-treated C57BL6 N mice (PD model animals); test: Novel object recognition task in PD model animals (MPTP); type: in vivo, mouse; details: 0.03, 0.1 and 0.3 mg/kg p.o. once daily for two weeks, Day 34, FIG. 3
Method: In the novel object recognition task, objects of the same shape were placed to be memorized by the mice in the training trial, and in the test trial, one of the objects was replaced with a novel object, and the rate of contact with both objects (corresponding to the vertical axis Discrimination index (%) in FIG. 3) was evaluated.

[7] = system: FABP3 and phosphorylated α-synuclein; test: Double staining for phosphorylated α-synuclein and FABP3 in dopaminergic neurons of PD model animals; type: in vivo, mouse; details: MPTP mice
Description: as §5

[8] = system: phosphorylated α-synuclein; test: Phosphorylated α-synuclein staining in dopaminergic neurons of PD model animals; details: MPTP mice
Description: as §5

T4 sequence (Q01469 whole entry): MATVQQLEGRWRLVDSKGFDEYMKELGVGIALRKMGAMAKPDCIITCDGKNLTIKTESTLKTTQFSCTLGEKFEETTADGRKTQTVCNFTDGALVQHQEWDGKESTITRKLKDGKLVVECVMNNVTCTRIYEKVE
T2 sequence (P15090 whole entry): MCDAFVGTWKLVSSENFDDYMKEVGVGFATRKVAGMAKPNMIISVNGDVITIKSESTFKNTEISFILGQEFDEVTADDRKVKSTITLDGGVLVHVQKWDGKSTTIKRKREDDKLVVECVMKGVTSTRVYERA
T1 sequence (P05413 with tags, fused parts or gaps): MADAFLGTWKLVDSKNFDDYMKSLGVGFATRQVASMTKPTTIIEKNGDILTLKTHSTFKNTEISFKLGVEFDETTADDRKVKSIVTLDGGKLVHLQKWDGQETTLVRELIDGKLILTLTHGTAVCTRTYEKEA

Row | SMILES | Kd (GST-FABP3) [µM] | Kd (GST-FABP4) [µM] | Kd (GST-FABP7) [µM] | Kd (GST-FABP5) [µM] | Rotarod task: time until the mice fell (Latency), motor function [1] | Beam walking task: number of foot slips, motor function [2] | Number of TH+ cells (dopaminergic neurons) in SNpc and VTA [3] | also measured
1 | O=C(O)CCCOc1ccccc1-c1nc(-c2ccccc2C(F)(F)F)n(-c2ccccc2)n1 [Example Compound 3, 4-(2-(1-phenyl-5-(2-(trifluoromethyl)phenyl)-1H-1,2,4-triazol-3-yl)phenoxy)butanoic acid] | 0.16 ± 0.0341 | 0.369 ± 0.0441 | ≥ 1000 | – | – | – | – | –
2 | O=C(O)CCCOc1ccccc1-c1cc(-c2ccccc2Cl)n(-c2ccccc2)n1 [LIGAND 1, reference compound] | – | 0.229 ± 0.0399 | – | 0.324 ± 0.0452 | No improvement was observed | Improvement was also confirmed | no improvement was observed | Protection of dopaminergic neurons from cell death due to α-synuclein oligomerization (dopaminergic neurons): protects dopaminergic neurons from cell death
3 | CC(C)c1ccc(-n2nc(-c3ccccc3OCCCC(=O)O)cc2-c2ccccc2C(F)(F)F)cc1 [Example Compound 5, 4-(2-(1-(4-isopropylphenyl)-5-(2-(trifluoromethyl)phenyl)-1H-pyrazol-3-yl)phenoxy)butanoic acid] | 0.0548 ± 0.0045 | 0.434 ± 0.0109 | ≥ 1000 | 1.82 ± 0.392 | – | – | – | –
4 | O=C(O)CCCOc1ccc(F)cc1-c1cc(-c2ccccc2C(F)(F)F)n(-c2ccccc2)n1 [Example Compound 1, 4-(4-fluoro-2-(1-phenyl-5-(2-(trifluoromethyl)phenyl)-1H-pyrazol-3-yl)phenoxy)butanoic acid] | – | – | ≥ 1000 | – | – | – | – | Passive avoidance task: time until entering the dark room (Latency) [4]: concentration-dependent prolongation of the waiting time; Mouse survival rate compared to Vehicle mice ([5]; FIG. 24): improved; Cerebral infarct volume compared to Vehicle mice ([5]; TTC staining): reduced
5 | O=C(O)CCCOc1ccccc1-c1cc(-c2ccccc2C(F)(F)F)n(-c2ccccc2)n1 [Example Compound 2, 4-(2-(1-phenyl-5-(2-(trifluoromethyl)phenyl)-1H-pyrazol-3-yl)phenoxy)butanoic acid] | 0.0117 ± 0.0188 | 0.104 ± 0.0363 | 2.05 ± 0.0352 | 0.189 ± 0.0245 | improvement in motor function was confirmed | improvement in motor function was confirmed | suppresses the decrease in dopaminergic neurons | Novel object recognition task: rate of contact with novel and known objects (Discrimination index) [6]: trend of improvement in cognitive function; Localization of FABP3 and phosphorylated α-synuclein in dopaminergic neurons ([7]; 0.1, 0.3, 1.0 mg/kg, Day 34, SNpc and VTA, FIGS. 14 to 17): reduced; Interaction between phosphorylated α-synuclein and FABP3 in dopaminergic neurons, substantia nigra (SNpc) ([7]; brain sections of SNpc, FIG. 15): inhibited; Interaction between phosphorylated α-synuclein and FABP3 in dopaminergic neurons, ventrotegmental area (VTA) ([7]; brain sections of VTA, FIG. 17): inhibited; Phosphorylation level of α-synuclein in dopaminergic neurons ([8]; 0.1, 0.3, 1.0 mg/kg, Day 34, SNpc and VTA, FIGS. 10 to 13): reduced; Protection of dopaminergic neurons from the toxicity of phosphorylated α-synuclein, substantia nigra (SNpc) ([8]; brain sections of SNpc, FIG. 11): protected dopaminergic neurons; Protection of dopaminergic neurons from the toxicity of phosphorylated α-synuclein, ventrotegmental area (VTA) ([8]; brain sections of VTA, FIG. 13): protected dopaminergic neurons
6 | CC(C)c1ccc(-n2nc(-c3cc(F)ccc3OCCCC(=O)O)cc2-c2ccccc2C(F)(F)F)cc1 [Example Compound 4, 4-(4-fluoro-2-(1-(4-isopropylphenyl)-5-(2-(trifluoromethyl)phenyl)-1H-pyrazol-3-yl)phenoxy)butanoic acid] | 0.113 ± 0.0031 | 2.18 ± 0.458 | ≥ 1000 | 1.35 ± 0.204 | – | – | – | –
